According to patent publication US20190336496A1, “SELECTIVE BCL-2 INHIBITORS IN COMBINATION WITH AN ANTI-PD-1 OR AN ANTI-PD-L1 ANTIBODY FOR THE TREATMENT OF CANCERS” (AbbVie Inc., priority 2018, published 2019):
“And” between values parts separate entries of the source, which are not always exact repeats. Equal values may be shown once.

What was measured:
[1] = tested on: T-cell subsets in peripheral blood; assay: T-cell subsets in peripheral blood of healthy volunteers; type: in vivo, human; design: key: ↑: increase; ↓: decrease; ≈: no change; details: one dose of 100 mg (or dose-equivalent); one day pre- vs seven days post-treatment; per subject
Procedure: In a clinical study sponsored by AbbVie Inc. healthy volunteers were administered with one dose of 100 mg of Compound (I) (venetoclax) or a dose-equivalent of Compound (IV) in a solid formulation to deliver 100 mg of Compound (I). T-cell subsets in peripheral blood were measured one day pre- and seven days post-treatment by flow cytometry. In most of the tested subjects the fraction of CD4+ and CD8+ T effector memory and terminally differentiated effector memory cells increased, the proportion of CD8+ naïve T-cells has remained unchanged or decreased, and the proportion of CD4+ and CD8+ central memory T cells has decreased following treatment with either agent (Table 7 and FIG. 13).

mouse splenocytes = assay: In vitro sensitivity of mouse splenocytes; type: cell-based; details: BALB/c and C57BL/6 splenocytes, 24 hours
Procedure: Mouse splenocytes were plated at a density of 5×10^5 cells per well in a 48-well plate with 30 U/mL IL-2. Cells were cultured for 24 hours and then increasing concentrations of venetoclax were added for an additional 24 hours (DMSO was used as control). Cells were harvested, stained and subjected to flow cytometry analysis with an LSRFortessa™ X-20 instrument (BD Biosciences).
To further explore the mechanism for immune modulation in mice, splenocytes from BALB/c and C57BL/6 mice were treated in vitro with venetoclax for 24 hours. The two types of memory T-cells in mice are central memory (TCM; […]) and effector memory T-cells (TEM; […]). While naïve T-cells (CD62L^+CD44^−) were sensitive to venetoclax, effector memory T-cells were not and, importantly, their proportion increased relative to surviving T-cells with increased concentrations of venetoclax. Central memory T-cells were not affected by venetoclax under these experimental conditions (FIG. 9).

[2] = tested on: B-lymphocytes and T-cell populations; details: cited from earlier work
mouse lymphocytes = assay: In vivo sensitivity of lymphocytes (flow cytometry)
Procedure: FIG. 2: In vivo sensitivity of lymphocytes to Compound (I). […] Descriptions of each sub-section are as follows: (A) In vivo sensitivity of lymphocytes following one week of treatment with Compound (I). Naïve CB6F1 mice were treated daily with Compound (I) (50/mg/kg) for one week. Lymph nodes were collected, and immune cells were quantified by flow cytometry; (B) In vivo sensitivity of splenocytes following one week of treatment with Compound (I). Naïve C57BL/6 mice were treated daily with Compound (I) (50/mg/kg) for one week. Spleens were collected and immune cells were quantified by flow cytometry. Mouse splenocytes, including B-cells, CD8+ T-cells, and CD4+ T-cells, were sensitive to in vivo treatment with Compound (I), as described in Example 1; (C) In vivo sensitivity of T-cell subsets in splenocytes following one week of treatment with Compound (I). CD4+ naïve T-cells (TN) and CD8+ central memory T-cells in the spleen from C57BL/6 mice were slightly sensitive to in vivo Compound (I) treatment while the proportion of CD4+ and CD8+ effector memory T-cells (TEM) was increasing; and (D) In vivo sensitivity of T-cell subsets in the blood following one week of treatment with Compound (I). The proportion of CD4+ and CD8+ effector memory T cells (TEM) increased in the blood from C57BL/6 mice following in vivo Compound (I) treatment.
Cancer Immunol Res. 5; 29-41 (2017)). Any reduction in checkpoint inhibitor-mediated tumor growth inhibition or response rates caused by the addition of venetoclax would indicate potential antagonism. The panel was composed of syngeneic models of solid tumors: CT26, MC38 (both colorectal carcinoma) and EMT6 (breast cancer). […] Likewise, only modest anti-tumor activity could be observed in these models with venetoclax alone, dosed daily at 50 mg/kg for 14 days (FIG. 3, FIG. 6, FIGS. 12A, 12B, 12C, and 12D). […] Rather, it enhanced their efficacy in certain cases.

NCI-H211 = assay: Venetoclax cell killing (CellTiter-Glo); type: cell-based, human
Procedure: Solid tumor cell lines were obtained from American Type Culture Collection (ATCC, Manassas, Va.) or the National Cancer Institute (NCI) and cultured in humidified incubators at 37° C. (5% CO2) in appropriate media (specified by supplier) supplemented with 10% fetal bovine serum (FBS) or 10% human serum (HS). 24 hours after plating into 96-well or 384-well tissue culture plates, venetoclax was added to cells at various concentrations (typically 0.010 to 10 μM in half-log increments) to perform concentration-response assessments of cell killing. After 1 to 5 days of culture in the presence of venetoclax, cell viability was assessed using CellTiter-Glo® reagent (Promega). IC50 values were determined by non-linear regression analysis of the concentration response data (Table 5 and Table 6).

CC1(C)CCC(CN2CCN(c3ccc(C(=O)NS(=O)(=O)c4ccc(NCC5CCOCC5)c([N+](=O)[O-])c4)c(Oc4cnc5[nH]ccc5c4)c3)CC2)=C(c2ccc(Cl)cc2)C1 [Compound (I), venetoclax]
CD4+ T-Cells TCM [1]: ↓
CD4+ T-Cells TEM [1]: ↑
CD4+ T-Cells TEMRA [1]: ↑ and ≈ (2×)
CD4+ T-Cells TN [1]: ≈ and ↑ and ↓
CD8+ T-Cells TCM [1]: ↓
CD8+ T-Cells TEM [1]: ↑
CD8+ T-Cells TEMRA [1]: ↑ (2×) and ≈
CD8+ T-Cells TN [1]: ↓ and ≈ (2×)
central memory T-cells (mouse splenocytes): not affected
sensitivity of naïve T-cells (mouse splenocytes): sensitive
proportion of effector memory T-cells relative to surviving T-cells (mouse splenocytes; increased concentrations): increased
reductions in T-cell populations ([2]; Lu et al. 2017, Khaw et al. 2014): up to 30%
reductions in B-lymphocytes ([2]; clinically and in experimental studies): significant reductions
sensitivity of lymphocytes in lymph node, spleen and blood (B-cells, CD8+ T-cells, CD4+ T-cells) (mouse lymphocytes; daily 50/mg/kg for one week, flow cytometry): sensitive
murine T-cell populations in vivo (mouse lymphocytes; mice treated daily at 50 mg/kg for one week): clear reductions
proportion of memory cells, specifically effector memory cells (mouse lymphocytes; spleen and blood of C57BL/6 mice, one week of treatment): increase
IC50 (NCI-H211; Homo sapiens, NCI-H211, 48 h, Lung, 10% HS, 2 days): 30 nM
sensitivity at clinically relevant concentrations (NCI-H211; only line of Tables 5 and 6): showed sensitivity
